# Measurements from patent publication US10071992B2, “Diacylglycerol acyl transferase 2 inhibitors” (Pfizer Inc., priority 2016, dated 2018).
# pIC50: −log10 of the molar value.
# Assays:
# DGAT2 = DGAT2 (Homo sapiens (Human), UniProt Q96PD7); assay: IC50 values for DGAT2 inhibitors in human hepatocytes; assay type: cell-based; settings: geometric mean, N=10; cryopreserved human hepatocytes, DGAT1 inhibitor at 3 μM present, [1,3-14C]-glycerol incorporation
# Method: After 24 hours overnight recovery period, the cells were overlayed with media containing 250 μg/ml Matrigel (BD Biosciences, San Jose, Calif.). The following day, media was aspirated and replaced with serum-free Williams Media E (Life Technologies, Grand Island, N.Y.) containing 400 μM sodium dodecanoate (Sigma-Aldrich, St. Louis, Mo.). […] After separation, radiolabeled lipids were visualized using a Molecular Dynamics' PhosphorImager system.
# human DGAT2 (hDGAT2) = human DGAT2 (hDGAT2) (Homo sapiens (Human), UniProt Q96PD7); assay: In vitro DGAT2 assay, determination of IC50 values for DGAT2 inhibitors; assay type: biochemical
# human DGAT2 (hDGAT2), sequence (Q96PD7 whole entry): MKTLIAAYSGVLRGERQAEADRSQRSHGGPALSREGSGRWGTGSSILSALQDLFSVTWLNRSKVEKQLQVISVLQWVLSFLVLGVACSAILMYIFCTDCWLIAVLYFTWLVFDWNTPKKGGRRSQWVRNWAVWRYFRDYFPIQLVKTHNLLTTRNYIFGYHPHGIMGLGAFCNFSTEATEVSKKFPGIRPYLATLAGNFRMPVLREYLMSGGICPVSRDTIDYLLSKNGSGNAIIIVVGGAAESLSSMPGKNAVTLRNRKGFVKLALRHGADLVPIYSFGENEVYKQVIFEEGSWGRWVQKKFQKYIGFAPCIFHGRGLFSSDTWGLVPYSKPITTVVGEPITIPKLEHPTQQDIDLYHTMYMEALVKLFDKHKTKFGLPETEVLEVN
# Method: Recombinant baculovirus for the FLAG-tagged hDGAT2 was generated in SF9 insect cells using Bac-to-Bac baculovirus expression system (Invitrogen) according to the manufacturer's protocol. For the expression of hDGAT2, SF9 cells (20 L) grown in Sf90011 media were infected with hDGAT2 baculovirus at a multiplicity of infection of 1 in a Wave Bioreactor System 20/50P wave bag (GE Healthcare). After 40 hours of infection, the cells were then harvested by centrifugation at 5,000×g. The cell pellets were washed by resuspending in phosphate buffered saline (PBS) and collected by centrifugation at 5,000×g. The cell paste was flash frozen in liquid N2 and stored at −80° C. until needed. All operations below were at 4° C. unless otherwise noted. The cells were resuspended in lysis buffer (50 mM Tris-HCl, pH 8.0, 250 mM sucrose) including 1 mM ethylenediaminetetraacetic acid (EDTA) and the complete protease inhibitor cocktail (Roche Diagnostics) at a ratio of 3 ml buffer per 1 g cell paste. The cells were lysed by dounce homogenizer. The cell debris was removed by centrifugation at 1,000×g for 20 min, and the supernatant was centrifuged at 100,000×g for 1 hour. The resulting pellet was rinsed three times by filling ultracentrifuge tubes to the top with ice cold PBS before decanting. The washed pellet was resuspended with gentle stirring for 1 hour in lysis buffer containing 8 mM 3-[(3-cholamidopropyl)dimethylammonio]-1-propanesulfonate (CHAPS) at a ratio of 1 mL buffer per 1 g of original cell paste and centrifuged again at 100,000×g for 1 hour. The resulting supernatant was aliquotted, flash frozen in liquid N2, and stored at −80° C. until use.
# To 1 μL of compounds dissolved in 100% DMSO and spotted at the bottom of each well, 5 μL of 0.04% bovine serum albumin (BSA) (fatty acid free, Sigma Aldrich) was added and the mixture was incubated at room temperature for 15 minutes. hDGAT2 membrane fractions were diluted in 100 mM Hepes-NaOH, pH 7.4, 20 mM MgCl2 containing 200 nM methyl arachidonyl fluorophosphonate (Cayman Chemical; dried from ethyl acetate stock solution under argon gas and dissolved in DMSO as 5 mM stock). 10 μL of this enzyme working solution was added to the plates and incubation continued for 2 hours at room temperature. DGAT2 reactions were initiated by the addition of 4 μL of substrates containing 30 μM [1-^14C]decanoyl-CoA (custom-synthesized by Perkin Elmer, 50 mCi/mmol) and 125 μM 1,2-didecanoyl-sn-glycerol (Avanti Polar Lipids) dissolved in 12.5% acetone. The reaction mixtures were incubated at room temperature for 40 min and the reactions were stopped by addition of 5 μL of 1% H3PO4. After the addition of 45 μL MicroScint-E (Perkin-Elmer), plates were sealed with Top Seal-A covers (Perkin-Elmer) and phase partitioning of substrates and products was achieved using a HT-91100 microplate orbital shaker (Big Bear Automation, Santa Clara, Calif.). Plates were centrifuged at 2,000×g for 1 minute in an Allegra 6R Centrifuge (Beckman Coulter) and then were sealed again with fresh covers before reading in a 1450 Microbeta Wallac Trilux Scintillation Counter (Perkin Elmer). DGAT2 activity was measured by quantifying the generated product [^14C]tridecanoylglycerol in the upper organic phase.
# Inhibitors were tested at eleven different concentrations to generate IC50 values for each compound.
# [1] = Metabolic clearance in HLM (hepatic clearance profile); assay type: in vitro ADME; settings: human, human liver microsomes, read-out: Clint, app in HLM
# [2] = geometric mean, hDGAT2 membrane fraction, [1-14C]decanoyl-CoA and 1,2-didecanoyl-sn-glycerol
# [3] = Table 3, comparison with WO2015140658 Example 19.21
# DGAT2, sequence (Q96PD7 whole entry): as above
SMILES,pIC50 (human DGAT2 (hDGAT2); [2]),other results
"CCOc1cccnc1Oc1cncc(-c2ncc(C(=O)N[C@H]3CCOC3)cn2)c1 [Example 1, (S)-2-(5-((3-ethoxypyridin-2-yl)oxy)pyridin-3-yl)-N-(tetrahydrofuran-3-yl)pyrimidine-5-carboxamide]",–,pIC50 (DGAT2): 8.55
"CCOc1cccnc1Oc1cncc(-c2ncc(C(=O)N[C@@H]3CCOC3)cn2)c1 [Example 2, (R)-2-(5-((3-Ethoxypyridin-2-yl)oxy)pyridin-3-yl)-N-(tetrahydrofuran-3-yl)pyrimidine-5-carboxamide]",6.70,–
"CCOc1cccnc1Oc1cncc(-c2ncc(C(=O)NC3(C)CCS(=O)(=O)C3)cn2)c1 (centres unmarked) [Example 3.1, 2-(5-((3-ethoxypyridin-2-yl)oxy)pyridin-3-yl)-N-(3-methyl-1,1-dioxidotetrahydrothiophen-3-yl)pyrimidine-5-carboxamide]",7.87,–
"CCOc1cccnc1Oc1cncc(-c2ncc(C(=O)NC(C)(CO)CO)cn2)c1 [Example 3.2, N-(1,3-dihydroxy-2-methylpropan-2-yl)-2-(5-((3-ethoxypyridin-2-yl)oxy)pyridin-3-yl)pyrimidine-5-carboxamide]",7.08,–
"CCOc1cccnc1Oc1cncc(-c2ncc(C(=O)NC3CCS(=O)(=O)C3)cn2)c1 (centres unmarked) [Example 3.3, N-(1,1-dioxidotetrahydrothiophen-3-yl)-2-(5-((3-ethoxypyridin-2-yl)oxy)pyridin-3-yl)pyrimidine-5-carboxamide]",6.71,–
"CCOc1cccnc1Oc1cncc(-c2ncc(C(=O)N[C@H]3CCOC3)nn2)c1 [Example 3.4, (S)-3-(5-((3-ethoxypyridin-2-yl)oxy)pyridin-3-yl)-N-(tetrahydrofuran-3-yl)-1,2,4-triazine-6-carboxamide]",6.74,–
"CCOc1nccnc1Oc1cncc(-c2ncc(C(=O)NC(C)(C)CO)cn2)c1 [Example 3.5, 2-(5-((3-ethoxypyrazin-2-yl)oxy)pyridin-3-yl)-N-(1-hydroxy-2-methylpropan-2-yl)pyrimidine-5-carboxamide]",6.62,–
"CCOc1cccnc1Oc1cncc(-c2ncc(C(=O)NC(C)(C)CS(C)(=O)=O)cn2)c1 [Example 3.6, 2-(5-((3-ethoxypyridin-2-yl)oxy)pyridin-3-yl)-N-(2-methyl-1-(methylsulfonyl)propan-2-yl)pyrimidine-5-carboxamide]",7.45,–
"O=C(N[C@H]1CCOC1)c1cnc(-c2cncc(Oc3ncccc3OCCF)c2)nc1 [Example 3.7, (S)-2-(5-((3-(2-fluoroethoxy)pyridin-2-yl)oxy)pyridin-3-yl)-N-(tetrahydrofuran-3-yl)pyrimidine-5-carboxamide]",7.18,–
"CCOc1cccnc1Oc1cncc(-c2ncc(C(=O)NC(C)(C)C#N)cn2)c1 [Example 4, N-(2-cyanopropan-2-yl)-2-(5-((3-ethoxypyridin-2-yl)oxy)pyridin-3-yl)pyrimidine-5-carboxamide]",8.13,–
"CCOc1cccnc1Oc1cncc(-c2ncc(C(=O)NC(C)(C)CO)cn2)c1 [Example 5, 2-(5-((3-Ethoxypyridin-2-yl)oxy)pyridin-3-yl)-N-(1-hydroxy-2-methylpropan-2-yl)pyrimidine-5-carboxamide]",7.85,microsomal CLint [1]: 18 µL/min/mg; pIC50 (human DGAT2 (hDGAT2); [3]): 7.85
"CCOc1cccnc1Oc1cncc(-c2ncc(C(=O)NC(C)(C)CO)nn2)c1 [Example 7, 3-{5-[(3-ethoxypyridin-2-yl)oxy]pyridin-3-yl}-N-(1-hydroxy-2-methylpropan-2-yl)-1,2,4-triazine-6-carboxamide]",7.08,–
"CCOc1cc(F)cnc1Oc1cncc(-c2ncc(C(=O)N[C@H]3CCOC3)cn2)c1 [Example 8, (S)-2-(5-((3-Ethoxy-5-fluoropyridin-2-yl)oxy)pyridin-3-yl)-N-(tetrahydrofuran-3-yl)pyrimidine-5-carboxamide]",8.43,–
"CCOc1ccccc1O[C@@H]1CCCN(c2ncc(C(=O)NC(C)(C)CO)cn2)C1 [WO2015140658 Example 19.21, reference compound]",–,microsomal CLint [1]: 121 µL/min/mg; pIC50 (human DGAT2 (hDGAT2); [3]): 8.10
